Our source for the IC50 values is US9815846B2 (Merck Sharp & Dohme Corp., priority 2014, dated 2017).

pIC50: −log10 of the molar value.

Broadly, the pIC50 is −log10 of the IC50, conventionally taken in molar units. Read a low pIC50 as a large IC50.

The target in this assay is human TrkA receptor (Homo sapiens (Human), UniProt P04629). Briefly: DiscoverX PathHunter TrkA functional assay (NGF-stimulated U2OS cells). Conditions: U2OS cells expressing human TrkA-PK, Shc1-EA and p75NTR; compound 1 h, then NGF at ~80% of maximal response for 3 h; luminescence. The assay is classed as cell-based.
Sequence of human TrkA receptor (P04629 33-796): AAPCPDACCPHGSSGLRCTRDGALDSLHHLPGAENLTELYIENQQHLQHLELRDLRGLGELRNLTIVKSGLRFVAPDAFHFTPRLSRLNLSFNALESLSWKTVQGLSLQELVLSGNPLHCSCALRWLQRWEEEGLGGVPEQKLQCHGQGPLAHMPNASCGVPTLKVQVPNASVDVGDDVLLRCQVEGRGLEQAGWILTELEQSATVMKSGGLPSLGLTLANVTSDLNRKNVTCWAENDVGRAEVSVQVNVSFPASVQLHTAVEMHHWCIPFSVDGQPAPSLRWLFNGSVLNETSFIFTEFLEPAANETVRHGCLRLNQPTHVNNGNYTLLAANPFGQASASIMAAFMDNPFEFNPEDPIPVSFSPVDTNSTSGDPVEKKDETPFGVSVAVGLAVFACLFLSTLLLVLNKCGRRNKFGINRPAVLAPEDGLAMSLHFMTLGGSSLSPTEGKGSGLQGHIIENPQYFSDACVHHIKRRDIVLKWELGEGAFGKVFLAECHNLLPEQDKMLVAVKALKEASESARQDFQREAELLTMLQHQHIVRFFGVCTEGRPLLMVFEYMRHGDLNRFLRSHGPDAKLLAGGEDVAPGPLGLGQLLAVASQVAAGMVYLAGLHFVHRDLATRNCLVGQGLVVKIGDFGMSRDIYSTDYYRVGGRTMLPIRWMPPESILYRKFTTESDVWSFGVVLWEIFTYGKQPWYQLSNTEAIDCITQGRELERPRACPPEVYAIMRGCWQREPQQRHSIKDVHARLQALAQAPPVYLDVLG
`NC(=O)c1cnc(-c2cnc(-c3ccccc3)c(NC(=O)c3cc(-c4ncccn4)c(C(F)(F)F)cc3F)c2)nc1` [Example 169, 2-(5-(2-fluoro-5-(pyrimidin-2-yl)-4-(trifluoromethyl)benzamido)-6-phenylpyridin-3-yl)pyrimidine-5-carboxamide]: the pIC50 is 9.23.

`CC(=O)NCc1cnc(-c2cnc(-c3ccccc3)c(NC(=O)c3cc(-c4ncccn4)c(C(F)(F)F)cc3F)c2)nc1` [Example 170, N-(5-(5-(acetamidomethyl)pyrimidin-2-yl)-2-phenylpyridin-3-yl)-2-fluoro-5-(pyrimidin-2-yl)-4-(trifluoromethyl)benzamide] had a pIC50 of 7.80. Compared with the last molecule, the pIC50 is 1.43 log units lower.

As to `Cn1ccc(-c2cc(C(=O)Nc3cc(-c4ccc(C(=O)O)cn4)cnc3-c3ccccc3)c(F)cc2C(F)(F)F)n1` [Example 171, 5′-(2-fluoro-5-(1-methyl-1H-pyrazol-3-yl)-4-(trifluoromethyl)benzamido)-6′-phenyl-[2,3′-bipyridine]-5-carboxylic acid], the pIC50 is 8.00.

On to `Cn1ccc(-c2cc(C(=O)Nc3cc(-c4ccc(C(C)(C)O)cn4)cnc3-c3ccccc3)c(F)cc2C(F)(F)F)n1` [Example 172, 2-fluoro-N-(5-(2-hydroxypropan-2-yl)-6′-phenyl-[2,3′-bipyridin]-5′-yl)-5-(1-methyl-1H-pyrazol-3-yl)-4-(trifluoromethyl)benzamide], for which the pIC50 is 9.59. Compared with the last molecule, the pIC50 is 1.59 log units higher.

In turn, `NC(=O)c1ccnc(-c2cnc(-c3ccccc3)c(NC(=O)c3cc(-c4ncccn4)c(C(F)(F)F)cc3F)c2)n1` [Example 173, 2-(5-(2-fluoro-5-(pyrimidin-2-yl)-4-(trifluoromethyl)benzamido)-6-phenylpyridin-3-yl)pyrimidine-4-carboxamide] showed a pIC50 of 8.31. This pIC50 is 1.28 log units lower than that of the molecule before.

With `CNC(=O)c1ccc(-c2cnc(-c3ccccc3)c(NC(=O)c3cc(-c4ncccn4)c(C(F)(F)F)cc3F)c2)nc1` [Example 174, 5′-(2-fluoro-5-(pyrimidin-2-yl)-4-(trifluoromethyl)benzamido)-N-methyl-6′-phenyl-[2,3′-bipyridine]-5-carboxamide], the pIC50 was 8.32.

In turn, `NC(=O)c1ncc(-c2cnc(-c3ccccc3)c(NC(=O)c3cc(-c4ncccn4)c(C(F)(F)F)cc3F)c2)cn1` [Example 175, 5-(5-(2-fluoro-5-(pyrimidin-2-yl)-4-(trifluoromethyl)benzamido)-6-phenylpyridin-3-yl)pyrimidine-2-carboxamide] gave a pIC50 of 7.91.

In turn, `O=C(Nc1cc(OCc2ccncc2)cnc1-c1ccccc1)c1cc(-c2ncccn2)c(C(F)(F)F)cc1F` [Example 176, 2-fluoro-N-(2-phenyl-5-(pyridin-4-ylmethoxy)pyridin-3-yl)-5-(pyrimidin-2-yl)-4-(trifluoromethyl)benzamide] had a pIC50 of 8.20.

In turn, `NC(=O)N1CCN(c2cnc(-c3ccccc3)c(NC(=O)c3cc(-c4ncccn4)c(C(F)(F)F)cc3F)c2)CC1` [Example 177, 4-(5-(2-fluoro-5-(pyrimidin-2-yl)-4-(trifluoromethyl)benzamido)-6-phenylpyridin-3-yl)piperazine-1-carboxamide] had a pIC50 of 7.74. Compared with the last molecule, the pIC50 is 0.46 log units lower.

For `CC(N)c1ccc(-c2cnc(-c3ccccc3)c(NC(=O)c3cc(-c4ccn(C)n4)c(C(F)(F)F)cc3F)c2)nc1` (stereo not drawn) [Example 178, N-(5-(1-aminoethyl)-6′-phenyl-[2,3′-bipyridin]-5′-yl)-2-fluoro-5-(1-methyl-1H-pyrazol-3-yl)-4-(trifluoromethyl)benzamide], the pIC50 is 9.54.

`Cn1ccc(-c2cc(C(=O)Nc3cnc(Cc4nnnn4C)nc3-c3ccccc3)c(F)cc2C(F)(F)F)n1` [Example 179, 2-Fluoro-5-(1-methyl-1H-pyrazol-3-yl)-N-(2-((1-methyl-1H-tetrazol-5-yl)methyl)-4-phenylpyrimidin-5-yl)-4-(trifluoromethyl)benzamide] gave a pIC50 of 9.00.

In turn, `CCn1c(Cc2ncc(NC(=O)c3cc(-c4ccn(C)n4)c(C(F)(F)F)cc3F)c(-c3ccccc3)n2)n[nH]c1=O` [Example 180, N-(2-((4-ethyl-5-oxo-4,5-dihydro-1H-1,2,4-triazol-3-yl)methyl)-4-phenylpyrimidin-5-yl)-2-fluoro-5-(1-methyl-1H-pyrazol-3-yl)-4-(trifluoromethyl)benzamide] had a pIC50 of 8.49.

In the case of `Cn1ccc(-c2cc(C(=O)Nc3cnc(CN4CCN(S(C)(=O)=O)CC4)nc3-c3ccccc3)c(F)cc2C(F)(F)F)n1` [Example 182, 2-Fluoro-5-(1-methyl-1H-pyrazol-3-yl)-N-(2-((4-(methylsulfonyl)piperazin-1-yl)methyl)-4-phenylpyrimidin-5-yl)-4-(trifluoromethyl)benzamide], the pIC50 is 8.29.

Take `Cn1ccc(-c2cc(C(=O)Nc3ccc(CN4CC5(COC5)C4)nc3-c3ccccc3)c(F)cc2C(F)(F)F)n1` [Example 183, N-(6-((2-oxa-6-azaspiro[3.3]heptan-6-yl)methyl)-2-phenylpyridin-3-yl)-2-fluoro-5-(1-methyl-1H-pyrazol-3-yl)-4-(trifluoromethyl)benzamide]: the pIC50 was 8.15.

`Cn1ccc(-c2cc(C(=O)Nc3cnc(CN4C[C@@H](O)[C@@H](O)C4)nc3-c3ccccc3)c(F)cc2C(F)(F)F)n1` [Example 184, N-(2-(((3S,4R)-3,4-dihydroxypyrrolidin-1-yl)methyl)-4-phenylpyrimidin-5-yl)-2-fluoro-5-(1-methyl-1H-pyrazol-3-yl)-4-(trifluoromethyl)benzamide] showed a pIC50 of 8.39.

`O=C(Nc1cc2c(nc1-c1ccccc1)C(=O)NC2=O)c1cc(-c2ncccn2)c(C(F)(F)F)cc1F` [Example 185, N-(5,7-Dioxo-2-phenyl-6,7-dihydro-5H-pyrrolo[3,4-b]pyridin-3-yl)-2-fluoro-5-(pyrimidin-2-yl)-4-(trifluoromethyl)benzamide] showed a pIC50 of 7.74.

`Cn1ccc(-c2cc(C(=O)Nc3cnc(CN4C(=O)CCC4=O)nc3-c3ccccc3)c(F)cc2C(F)(F)F)n1` [Example 187, N-(2-((2,5-dioxopyrrolidin-1-yl)methyl)-4-phenylpyrimidin-5-yl)-2-fluoro-5-(1-methyl-1H-pyrazol-3-yl)-4-(trifluoromethyl)benzamide] showed a pIC50 of 9.17.

`Cn1ccc(-c2cc(C(=O)Nc3cc4c(nc3-c3ccccc3)CNC4)c(F)cc2C(F)(F)F)n1` [Example 188, 2-Fluoro-5-(1-methyl-1H-pyrazol-3-yl)-N-(2-phenyl-6,7-dihydro-5H-pyrrolo[3,4-b]pyridin-3-yl)-4-(trifluoromethyl)benzamide]: the pIC50 is 8.54.

`Cn1ccc(-c2cc(C(=O)Nc3cnc(C4CCCNC4=O)nc3-c3ccccc3)c(F)cc2C(F)(F)F)n1` (stereo not drawn) [Example 193, 2-Fluoro-5-(1-methyl-1H-pyrazol-3-yl)-N-(2-(2-oxopiperidin-3-yl)-4-phenylpyrimidin-5-yl)-4-(trifluoromethyl)benzamide] had a pIC50 of 8.41.

The molecule `Cn1ccc(-c2cc(C(=O)Nc3cc(S(C)(=O)=O)cnc3-c3ccccc3)c(F)cc2C(F)(F)F)n1` [Example 194, 2-Fluoro-5-(1-methyl-1H-pyrazol-3-yl)-N-(5-(methylsulfonyl)-2-phenylpyridin-3-yl)-4-(trifluoromethyl)benzamide] had a pIC50 of 8.59.

As for `Cn1ccc(-c2cc(C(=O)Nc3cc(S(C)(=N)=O)cnc3-c3ccccc3)c(F)cc2C(F)(F)F)n1` (stereo not drawn) [Example 195, 2-fluoro-5-(1-methyl-1H-pyrazol-3-yl)-N-(5-(S-methylsulfonimidoyl)-2-phenylpyridin-3-yl)-4-(trifluoromethyl)benzamide], the pIC50 is 8.55.
